Read-outs that look alike come from different tables or passages of the source.
How the values were obtained:
System L = System L Binding
[1] = tested on: Carrageenin-Induced Hyperalgesia; test: Pain Model (Carrageenin-Induced Hyperalgesia, rat paw pressure test); type: in vivo
Procedure: Carrageenin-Induced Hyperalgesia
Nociceptive pressure thresholds were measured in the rat paw pressure test using an analgesymeter (Randall-Sellitto Method: Randall L. O., Sellitto J. J., A method for measurement of analgesic activity on inflamed tissue. Arch. Int. Pharmacodyn., 4:409-419 (1957)). Male Sprague-Dawley rats (70-90 g) were trained on this apparatus before the test day. Pressure was gradually applied to the hind paw of each rat and nociceptive thresholds were determined as the pressure (g) required to elicit paw withdrawal. A cutoff point of 250 g was used to prevent any tissue damage to the paw. On the test day, two to three baseline measurements were taken before animals were administered 100 μL of 2% carrageenin by intraplantar injection into the right hind paw.

[2] = tested on: sound-induced seizure responses in DBA/2 mice; test: DBA2 Mouse Model of Anticonvulsant Efficacy; type: in vivo; settings: for responders at 30 mg/kg: Mus musculus, po, read-out: DBA2 Mouse Model % Protected
Procedure: DBA2 Mouse Model of Anticonvulsant Efficacy
All procedures were carried out in compliance with the NIH Guide for the Care and Use of Laboratory Animals under a protocol approved by the Parke-Davis Animal Use Committee. Male DBA/2 mice, 3 to 4 weeks old were obtained from Jackson Laboratories Bar Harbour, Maine. Immediately before anticonvulsant testing, mice were placed upon a wire mesh, 4 inches square, suspended from a steel rod. The square was slowly inverted through 180° and mice observed for 30 seconds. Any mouse falling from the wire mesh was scored as ataxic (Coughenour L. L., McLean J. R., Parker R. B., “A new device for the rapid measurement of impaired motor finction in mice,” Pharm. Biochem. Behav., 1977;6(3):351-3). Mice were placed into an enclosed acrylic plastic chamber (21 cm height, approximately 30 cm diameter) with a high-frequency speaker (4 cm diameter) in the center of the top lid. An audio signal generator (Protek model B-810) was used to produce a continuous sinusoidal tone that was swept linearly in frequency between 8 kHz and 16 kHz once each 10 msec. The average sound pressure level (SPL) during stimulation was approximately 100 dB at the floor of the chamber. Mice were placed within the chamber and allowed to acclimatize for one minute. […] The incidence of all the seizure phases in the drug-treated and vehicle-treated mice was recorded, and the occurrence of tonic seizures were used for calculating anticonvulsant ED50 values by probit analysis (Litchfield J. T., Wilcoxon F. “A simplified method for evaluating dose-effect experiments,” J. Pharmacol., 1949;96:99-113). […] Groups of DBA/2 mice (n=5-10 per dose) were tested for sound-induced seizure responses 2 hours (previously determined time of peak effect) after given drug orally. […] Doses are expressed as weight of the active drug moiety.

[3] = tested on: Vogel Conflict (punished drinking) in Wistar rats; test: Vogel Conflict; type: in vivo, rat; settings: summary of Table 1
Procedure: Vogel J. R., Beer B. and Cloody D. E., 1971, reported the procedure used. Basically, in each experiment, 100 näive adult male Wistar rats between 170-220 gm were randomly divided into 10 groups and deprived of water for 48 hours prior to testing. Food was available on Day 1 and removed 24 hours prior to test Day 2.
On Day 1, experimental subjects were placed into the test chambers and allowed to drink 5 mL of water unpunished from a drinking tube on a water bottle mounted on the outside of the chamber. Immediately following the unpunished drinking session, each rat was dosed (PO) with vehicle (1 mL/kg) and returned to their home cage. On test Day 2, rats are dosed with the appropriate treatment and placed in test cages, following a 2-hour absorption period each rat is placed into a test chamber and allowed to drink for 10 minutes. Adjacent to the drink-tube is an optical lickmeter with a photo beam detector that counts the number of licks during active drinking. Every 10 licks, the rats received 1-second shock (1 mA) through the drink tube. Thus, a conflict or anxiety-producing situation exists; rats are motivated to drink, however, they are inhibited by the shock. Anxiety is reflected by the low amounts of drinking. Standard anxiolytic drugs produce effects that allow rats to overcome this behavioral inhibition and drink despite the shock.

SMILES: NC[C@H](CC(=O)O)C1CCCC1 [4R+, 4(R)-Amino-3-cyclopentyl-butyric Acid]
- IC50 (System L): 198 µM
- Pain Model % MPE 1 Hour [1]: 36 % MPE
- Pain Model % MPE 2 Hour [1]: 13.7 % MPE
- antihyperalgesic activity ([1]; summary of Table 1): especially active
- preventing convulsions ([2]; summary of Table 1): especially active
- antianxiety activity [3]: especially active

SMILES: NC[C@@H](CC(=O)O)C1CCCC1 [5S−, (S)-4-Amino-3-cyclopentyl-butyric Acid]
- IC50 (System L): 476 µM
- Pain Model % MPE 1 Hour [1]: 35 % MPE
- Pain Model % MPE 2 Hour [1]: 24 % MPE

SMILES: NCC(CC(=O)O)C1CCC1 (centres unmarked) [Example 2, 4-Amino-3-cyclobutyl-butyric Acid]
- IC50 (System L): 1500 µM
- Pain Model % MPE 1 Hour [1]: −1.7 % MPE
- Pain Model % MPE 2 Hour [1]: −12.1 % MPE
- responders at 30 mg/kg ([2]; 1 Hr @ 30 m/k): 0%
- responders at 30 mg/kg ([2]; 2 Hr @ 30 m/k): 40%

SMILES: NCC(CC(=O)O)C1CCCC1 (centres unmarked) [Example 3, 4-Amino-3-cyclopentyl-butyric Acid]
- IC50 (System L): 464 µM
- Pain Model % MPE 1 Hour [1]: 73.8 % MPE
- Pain Model % MPE 2 Hour [1]: 27.7 % MPE

SMILES: NCC(CC(=O)O)CC1CC1 (centres unmarked) [Example 6]
- IC50 (System L): 1870 µM
- Pain Model % MPE 1 Hour [1]: 2.3 % MPE
- Pain Model % MPE 2 Hour [1]: −3.4 % MPE

SMILES: NCC(CC(=O)O)CC1CCC1 (centres unmarked) [Example 7]
- IC50 (System L): 2600 µM
- Pain Model % MPE 1 Hour [1]: 1.5 % MPE
- Pain Model % MPE 2 Hour [1]: −3.4 % MPE

SMILES: NCC(CC(=O)O)CC1CCCC1 (centres unmarked) [Example 8]
- IC50 (System L): 4640 µM

SMILES: NCC(CC(=O)O)CC1CCCCC1 (centres unmarked) [Example 9]
- IC50 (System L): 5500 µM

SMILES: CC(CN)(CC(=O)O)C1CC1 (centres unmarked) [Example 10]
- IC50 (System L): 599 µM
- Pain Model % MPE 1 Hour [1]: −4.3 % MPE
- Pain Model % MPE 2 Hour [1]: −9.1 % MPE

SMILES: CC(CN)(CC(=O)O)C1CCC1 (centres unmarked) [Example 11]
- IC50 (System L): 74 µM
- Pain Model % MPE 1 Hour [1]: 4.2 % MPE
- Pain Model % MPE 2 Hour [1]: 3.1 % MPE

SMILES: CC(CN)(CC(=O)O)CC1CCC1 (centres unmarked) [Example 12]
- IC50 (System L): 105 µM
- Pain Model % MPE 1 Hour [1]: −4.2 % MPE
- Pain Model % MPE 2 Hour [1]: −5.2 % MPE

SMILES: CC(CN)(CC(=O)O)CC1CCCC1 (centres unmarked) [Example 13]
- IC50 (System L): 1040 µM
